Measurements from patent publication US20150224085A1, “METHOD OF ADMINISTERING A 5,5-FUSED HETEROARYLENE HEPATITIS C VIRUS INHIBITOR FOR TREATING OF PREVENTING HEPATITIS C VIRUS INFECTION” (priority 2012, published 2015).
Several values for one entry are separate records, joined by “and”; a condition that tells them apart may be missing. Equal values may be shown once. Read-outs that look alike come from different tables or passages of the source.

Experiments:
[1] = 28-day toxicity study in cynomolgus monkeys
Description: Safety margins were calculated based upon proposed human doses in the first-in-human trial and human equivalent dose (HED) calculations derived from the two 28-day toxicology studies in mice and monkeys. This approach is consistent with the United States Food and Drug Administration Guidance for Industry entitled “Estimating the Maximum Safe Starting Dose in Initial Clinical Trials for Therapeutics in Adult Healthy Volunteers,” July 2005.

[2] = Phase I/IIa Group A: pharmacokinetics in healthy subjects; assay type: in vivo, human; conditions: for Cmax / half-life / AUC(0-inf) / Tmax: human, plasma, oral
Description: The phase I/IIa study was designed to evaluate safety and tolerability, pharmacokinetics (PK), food effect, and antiviral activity with regard to the Compound. The key safety parameters that were evaluated in the trial include adverse events (AEs), physical examination, vital signs, 12-lead electrocardiogram (ECG), and standard safety laboratory tests. The key antiviral activity parameters that were evaluated in the trial include changes in plasma HCV RNA and emergence of resistance mutations. The key pharmacokinetic parameters that were evaluated in the trial include plasma and urine concentrations of the Compound. […]
The Compound was first evaluated in a randomized, double-blind, placebo-controlled, sequential dose escalation study in 48 healthy subjects. For each cohort, there were 6 subjects to receive the Compound and 2 subjects to receive placebo. Except cohort 5a, the Compound was administered under fasted conditions.
For the food effect study (cohort 5a), subjects received a single dose of 50 mg of the Compound or placebo on Days 1 and 8, with a 7 day washout between dosing periods. In the food effect study, the subjects were randomized among two groups, differing by fasted/fed dosing sequences as shown in Table 3.

clinical = conditions: human, in vivo
Description: The phase I/IIa study was designed to evaluate safety and tolerability, pharmacokinetics (PK), food effect, and antiviral activity with regard to the Compound. The key safety parameters that were evaluated in the trial include adverse events (AEs), physical examination, vital signs, 12-lead electrocardiogram (ECG), and standard safety laboratory tests. The key antiviral activity parameters that were evaluated in the trial include changes in plasma HCV RNA and emergence of resistance mutations. The key pharmacokinetic parameters that were evaluated in the trial include plasma and urine concentrations of the Compound.
In the phase I/IIa study, plasma HCV RNA was quantitated using a validated commercial assay (COBAS® TAQMAN®) with a lower limit of quantitation of 25 IU/mL. HCV RNA genotyping was performed at Baseline using the Versant HCV Genotype Assay (LiPA) 2.0.
In Group C, the Compound was evaluated in a randomized, double-blind, placebo-controlled, parallel dosing study in 34 treatment-naive, genotype 1 HCV-infected subjects.
In Group D, the Compound was evaluated in an randomized, double-blind, placebo-controlled, parallel dosing study in 30 treatment-naive, genotypes 2, 3, and 4 HCV-infected subjects.
For all cohorts, dosing was under fasted in this study.

[3] = healthy subjects, 100 mg QD x 7 days, fasted, PK Day 1, mean ± SD
[4] = 5 mg, healthy subjects, 5 mg single dose, fasted, PK Day 1, mean ± SD
[5] = 10 mg, healthy subjects, 10 mg single dose, fasted, PK Day 1, mean ± SD
[6] = 25 mg, healthy subjects, 25 mg single dose, fasted, PK Day 1, mean ± SD
[7] = 50 mg, healthy subjects, 50 mg single dose, fasted, PK Day 1, mean ± SD
[8] = 50 mg, healthy subjects, 50 mg single dose, fed, PK Day 1, mean ± SD
[9] = 100 mg, healthy subjects, 100 mg QD x 7 days, fasted, PK Day 7, mean ± SD
[10] = 100 mg, healthy subjects, 100 mg single dose, fasted, PK Day 1, mean ± SD

**Q.** With `COC(=O)N[C@H](C(=O)N1CCC[C@H]1c1nc2cc(-c3csc4c(-c5ccc(-c6cnc([C@@H]7CCCN7C(=O)[C@H](NC(=O)OC)c7ccccc7)[nH]6)cc5)csc34)ccc2[nH]1)C(C)C` [the Compound, [(S)-1-((S)-2-{6-[6-(4-{(S)-2-[1-((R)-2-methoxycarbonylamino-2-phenyl-acetyl)-pyrrolidin-2-yl]-3H-imidazol-4-yl}-phenyl)-thieno[3,2-b]thiophen-3-yl]-1H-benzoimidazol-2-yl}-pyrrolidine-1-carbonyl)-2-methyl-propyl]-carbamic acid methyl ester] as the compound, how does the “no observable effect level (NOEL)” value ([1]; 28-day monkey study) read?
**A.** 250 mg/kg/day

**Q.** What about the toxicological target ([1]; 28 days, doses up to 250 mg/kg/day) of the same compound?
**A.** did not define any toxicological target

**Q.** And the “increase in plasma levels with dose” value ([1]; cynomolgus monkey, in vivo)?
**A.** little or no increase

**Q.** And the “Margin of Safety, Monkey” value ([1]; proposed human dose 1 mg/subject/day (0.02 mg/kg/day))?
**A.** 807 fold

**Q.** What about the “Margin of Safety, Monkey” value ([1]; proposed human dose 5 mg/subject/day (0.08 mg/kg/day)) of the same compound?
**A.** 204 fold

**Q.** What about the “Margin of Safety, Monkey” value ([1]; proposed human dose 10 mg/subject/day (0.17 mg/kg/day)) of the same compound?
**A.** 95 fold

**Q.** What about the “Margin of Safety, Monkey” value ([1]; proposed human dose 25 mg/subject/day (0.42 mg/kg/day)) of the same compound?
**A.** 38 fold

**Q.** And the “Margin of Safety, Monkey” value ([1]; proposed human dose 50 mg/subject/day (0.83 mg/kg/day))?
**A.** 19 fold

**Q.** What about the “reduction of exposure by food” value ([2]; 50 mg, after high-fat (about 55 g), high-calorie (about 950 kcal) meal) of the same compound?
**A.** approximately two-thirds

**Q.** And the “increase of AUC0-inf upon reaching steady state” value ([2]; QD dosing x 7 days)?
**A.** approximately 50%

**Q.** And the “increase of Ctrough upon reaching steady state” value ([2]; QD dosing x 7 days)?
**A.** about 70%

**Q.** And the Ctrough ([2]; healthy subjects, 5 mg single dose, fasted, PK Day 1, mean ± SD)?
**A.** 1.6 ± 0.5 ng/mL

**Q.** And the Ctrough ([2]; healthy subjects, 10 mg single dose, fasted, PK Day 1, mean ± SD)?
**A.** 3.7 ± 1.8 ng/mL

**Q.** What about the Ctrough ([2]; healthy subjects, 25 mg single dose, fasted, PK Day 1, mean ± SD) of the same compound?
**A.** 8.1 ± 2.9 ng/mL

**Q.** What about the Ctrough ([2]; healthy subjects, 50 mg single dose, fasted, PK Day 1, mean ± SD) of the same compound?
**A.** 13.4 ± 4.6 ng/mL

**Q.** And the Ctrough ([2]; healthy subjects, 50 mg single dose, fed, PK Day 1, mean ± SD)?
**A.** 5.6 ± 1.3 ng/mL

**Q.** What about the “AUC0-24 (column AUC0-inf, footnote 1)” value [2, 3] of the same compound?
**A.** 980 ± 312.4^1 ng · h/mL

**Q.** And the Ctrough [2, 3]?
**A.** 20.4 ± 9.0 ng/mL

**Q.** And the Ctrough ([2]; healthy subjects, 100 mg QD x 7 days, fasted, PK Day 7, mean ± SD)?
**A.** 34 ng/mL and 34.0 ± 14.4 ng/mL

**Q.** What about the Ctrough ([2]; healthy subjects, 100 mg single dose, fasted, PK Day 1, mean ± SD) of the same compound?
**A.** 17.1 ± 6.2 ng/mL

**Q.** And the exposure versus dose ([2]; healthy volunteers, dose range 5 to 100 mg)?
**A.** Dose proportional exposure

**Q.** What about the Cmax [2, 4] of the same compound?
**A.** 5.1 ± 1.1 ng/mL

**Q.** What about the half-life [2, 4] of the same compound?
**A.** 21 ± 4.5 h

**Q.** And the AUC(0-inf) ([2]; 5 mg, healthy subjects, 5 mg single dose, fasted, PK Day 1, mean ± SD, read-out: AUC0-inf)?
**A.** 110 ± 35.4 ng·h/mL

**Q.** And the Tmax ([2]; 5 mg, healthy subjects, 5 mg single dose, fasted, PK Day 1, median (min-max))?
**A.** 4 h

**Q.** And the Cmax [2, 5]?
**A.** 11.5 ± 4.3 ng/mL

**Q.** And the half-life [2, 5]?
**A.** 24 ± 4.7 h

**Q.** What about the AUC(0-inf) ([2]; 10 mg, healthy subjects, 10 mg single dose, fasted, PK Day 1, mean ± SD, read-out: AUC0-inf) of the same compound?
**A.** 259 ± 123 ng·h/mL

**Q.** What about the Tmax ([2]; 10 mg, healthy subjects, 10 mg single dose, fasted, PK Day 1, median (min-max)) of the same compound?
**A.** 5 h

**Q.** And the Cmax [2, 6]?
**A.** 26.5 ± 11.1 ng/mL

**Q.** And the half-life [2, 6]?
**A.** 24 ± 3.2 h

**Q.** What about the AUC(0-inf) ([2]; 25 mg, healthy subjects, 25 mg single dose, fasted, PK Day 1, mean ± SD, read-out: AUC0-inf) of the same compound?
**A.** 570 ± 200 ng·h/mL

**Q.** What about the Tmax ([2]; 25 mg, healthy subjects, 25 mg single dose, fasted, PK Day 1, median (min-max)) of the same compound?
**A.** 4 h

**Q.** What about the Cmax [2, 7] of the same compound?
**A.** 50.9 ± 18.1 ng/mL

**Q.** And the half-life [2, 7]?
**A.** 22 ± 1.7 h

**Q.** And the AUC(0-inf) ([2]; 50 mg, healthy subjects, 50 mg single dose, fasted, PK Day 1, mean ± SD, read-out: AUC0-inf)?
**A.** 952 ± 336 ng·h/mL

**Q.** What about the Tmax ([2]; 50 mg, healthy subjects, 50 mg single dose, fasted, PK Day 1, median (min-max)) of the same compound?
**A.** 4 h

**Q.** And the Cmax [2, 8]?
**A.** 13.2 ± 3.3 ng/mL

**Q.** And the half-life [2, 8]?
**A.** 23 ± 3 h

**Q.** What about the AUC(0-inf) ([2]; 50 mg, healthy subjects, 50 mg single dose, fed, PK Day 1, mean ± SD, read-out: AUC0-inf) of the same compound?
**A.** 335 ± 53.9 ng·h/mL

**Q.** And the Tmax ([2]; 50 mg, healthy subjects, 50 mg single dose, fed, PK Day 1, median (min-max))?
**A.** 6 h

**Q.** And the Cmax ([2]; 100 mg, healthy subjects, 100 mg QD x 7 days, fasted, PK Day 1, mean ± SD)?
**A.** 86.9 ± 25.9 ng/mL

**Q.** And the Tmax ([2]; 100 mg, healthy subjects, 100 mg QD x 7 days, fasted, PK Day 1, median (min-max))?
**A.** 4 h

**Q.** What about the Cmax [2, 9] of the same compound?
**A.** 117 ± 39.4 ng/mL

**Q.** What about the half-life [2, 9] of the same compound?
**A.** 21 ± 3.4 h

**Q.** And the AUC(0-inf) ([2]; 100 mg, healthy subjects, 100 mg QD x 7 days, fasted, PK Day 7, mean ± SD, read-out: AUC0-inf (cell marked with footnote 1))?
**A.** 1480 ± 489 ng·h/mL

**Q.** What about the Tmax ([2]; 100 mg, healthy subjects, 100 mg QD x 7 days, fasted, PK Day 7, median (min-max)) of the same compound?
**A.** 3.5 h

**Q.** And the Cmax [2, 10]?
**A.** 83.3 ± 49.1 ng/mL

**Q.** And the half-life [2, 10]?
**A.** 23 ± 2.7 h

**Q.** And the AUC(0-inf) ([2]; 100 mg, healthy subjects, 100 mg single dose, fasted, PK Day 1, mean ± SD, read-out: AUC0-inf)?
**A.** 1290 ± 402 ng·h/mL

**Q.** And the Tmax ([2]; 100 mg, healthy subjects, 100 mg single dose, fasted, PK Day 1, median (min-max))?
**A.** 4 h

**Q.** And the AUC0-24 (clinical; 25 mg)?
**A.** 235 ± 79.9 ng·h/mL

**Q.** And the Cmax (clinical; 25 mg)?
**A.** 20 ± 6.74 ng/mL

**Q.** What about the Tmax (clinical; 25 mg) of the same compound?
**A.** 3.9 (3.0-6.0) hr

**Q.** What about the AUC(0-t) (clinical; 25 mg, AUC0-24) of the same compound?
**A.** 142 ± 44.5 ng·h/mL

**Q.** What about the Cmax (clinical; 25 mg, Cmax) of the same compound?
**A.** 14 ± 5.19 ng/mL

**Q.** What about the Tmax (clinical; 25 mg, Tmax) of the same compound?
**A.** 3.8 h

**Q.** What about the half-life (clinical; 25 mg, t1/2) of the same compound?
**A.** 20.8 ± 4.06 h

**Q.** What about the AUC(0-t) (clinical; 50 mg) of the same compound?
**A.** 384 ± 204 ng·h/mL

**Q.** And the t1/2 (clinical; 50 mg)?
**A.** 19.7 ± 2.0 h

**Q.** What about the AUC(0-t) (clinical; 50 mg, AUC0-12) of the same compound?
**A.** 260 ± 102 ng·h/mL

**Q.** What about the AUC(0-t) (clinical; 50 mg, AUC0-24) of the same compound?
**A.** 387 ± 115 ng·h/mL

**Q.** What about the Cmax (clinical; 50 mg, Cmax) of the same compound?
**A.** 32 ± 8.12 ng/mL

**Q.** And the Tmax (clinical; 50 mg, Tmax)?
**A.** 3.4 h

**Q.** And the half-life (clinical; 50 mg, t1/2)?
**A.** 23 ± 3.81 h

**Q.** What about the t1/2 (clinical; 100 mg) of the same compound?
**A.** 19.3 ± 2.69 h

**Q.** And the AUC(0-t) (clinical; 100 mg, AUC0-24)?
**A.** 410 ± 122 ng·h/mL

**Q.** What about the Cmax (clinical; 100 mg, Cmax) of the same compound?
**A.** 38 ± 8.6 ng/mL

**Q.** And the Tmax (clinical; 100 mg, Tmax)?
**A.** 3.7 h

**Q.** And the half-life (clinical; 100 mg, t1/2)?
**A.** 22.9 ± 3.6 h

**Q.** And the half-life (clinical; Plasma half-life)?
**A.** ~20 h

**Q.** What about the Tmax (clinical; Tmax) of the same compound?
**A.** 3.3 h

**Q.** What about the half-life (clinical; t1/2) of the same compound?
**A.** 19.7 ± 5.7 h
